# Measurements reported in PMC7465636 (Biomolecules, 2020).
# Read-outs that look alike come from different tables or passages of the source.
# Tests used:
# P. falciparum 3D7 = test: In vitro growth assay with flow cytometry, P. falciparum 3D7; assay type: cell-based, Plasmodium falciparum
# Method: (§1) Erythrocytes infected with P. falciparum 3D7 and the knockout strain for the PfSR25 receptor (PfSR25-) were kept in 175 cm^2 culture bottles (Greiner Bio-One) containing RPMI 1640 with 0.5% NaHCO3, 0.04% sulfate gentamicin, 0.05% hypoxanthine and supplemented with 0.5% AlbuMAX I (Gibco). The culture bottles were maintained at 37 °C and an atmosphere with 90% N2, 5% O2 and 5% CO2 Parasitemia was determined from a blood smear stained with Panotic Rapid (Laborclin).
# (§2) Red blood cells infected with P. falciparum (iRBC) asynchronously with 0.3% initial parasitemia and 1% hematocrit were incubated with different concentrations of compounds ranging from 0.0488 µM to 50 µM, for 72 h at 37 °C under mixture of gases. The control group was treated with solvent Dimethyl Sulfoxide (DMSO) (v/v); with the highest concentration of solvent bring 0.25%.
# (§3) Parasitemia was determined from the dot plots (side scatter versus fluorescence) of at least […] acquired on an Accuri C6 flow cytometer (Becton Dickinson). Initial gating was carried out with unstained, uninfected erythrocytes to account for erythrocyte autofluorescence.
# (§4) After 72 h, iRBCs were stained with nucleic acid marker SYBR Green I (1X) (Invitrogen) and mitochondria marker based on membrane potential MitoTracker Deep Red (50 nM) (Invitrogen), and were incubated for 20 min. at 37 °C. The final parasitemia was obtained by flow cytometer using a BD Accuri C6 Flow Cytometer, collecting 10^³ cells. Dot plots using FlowJo V10.6.2 software determined Parasitemia. At least three independent experiments were performed in triplicate to calculate the IC50 values for each drug.
# In order to identify potential antimalarials present in the library of compounds derived from the 1H-1,2,3-triazoles and 2H-1,2,3-triazoles, we used a culture of P. falciparum (3D7) to perform the screening tests of the compounds. To assess parasitemia at the end of the parasites incubation with the compounds for 72 h, we used a double-label: (1) SYBR Green I to mark DNA and (2) MitoTracker Deep Red as a mitochondria marker. The latter being dependent on the membrane potential, we ensured that only the marking and selection of viable parasites occurred.
# [1] = tested on: P. falciparum PfSR25- (knockout strain for the PfSR25 receptor); test: In vitro growth assay with flow cytometry, PfSR25- knockout strain; assay type: cell-based, Plasmodium falciparum; conditions: for IC50: 72 h; for IC50 for the knockout strain compared with the 3D7 strain: PfSR25- versus 3D7
# Method: as §1, §2, §3, §4
# We also assessed the role of PfSR25 in terms of its susceptibility to compounds with a better antimalarial activity (9, 13, 19, 21, 22, 24 and 29) and compounds with less activity (21) based on the results obtained with the 3D7 screening. Thus, the tests were carried out like that described above and are represented in Figure 5. However, we used the knockout strain for the receptor-like PfSR25- for the tests.
# HEK293 cells = assay type: cell-based, human; conditions: 72 h; for survival of HEK293 cells (MTT): 0.0488–50 µM; for toxicity in HEK 293 cells (MTT): at the tested concentrations (0.0488–50 µM)
# Method: Human Embryonic Kidney Cells (HEK293) were kept in 75 cm^2 culture bottles (Greiner Bio-One) at 37 °C, 5% CO2 containing Dulbecco’s Minimal Essential Medium (DMEM), added with 10% fetal bovine serum, 1% Streptomycin and Penicillin and 3.7 g/L of NaHCO3 (Sigma). Cell passages were performed with trypsin-EDTA (Invitrocell). The number of cells was monitored by counting in a Neubauer chamber.
# To evaluate the toxicity of the triazole compounds in mammalian cells, Human Embryonic Kidney cells (HEK293). Cells were plated in flat-bottom 96-well plates at a density of 10^4 cells per well and incubated for 24 h in 150 µL media at 37 °C, 5% CO2. Cells were then treated with different concentrations of each compound, ranging from 0.0488 µM to 50 µM in 200 µL DMEM for 72 h at 37 °C and 5% CO2. Cells treated with DMSO (v/v), with the highest concentration of solvent at 0.25% were used as control. After incubation, 40 µL of MTT reagent (solution 5 mg/mL in PBS) was added to each well, and cells were incubated for further 3 h at 37 °C and 5%CO2 [35]. The media was removed, and 100 µL of DMSO was added in each well. The plates were agitated in a shaker for 10 min to dissolve precipitates. The absorbance was read at 570 nm in a FlexStation 3 (Molecular Devices). Three experiments were performed independently in triplicates.
# [2] = assay type: physicochemical; conditions: in our experimental conditions
# Excerpt: The methods used to prepare the 1-aryl-1H-1,2,3-triazoles and 2-aryl-2H-1,2,3-triazoles (54 examples) involved classical chemical transformations, and all evaluated compounds were from the group’s molecular bank and were present in other published works. […] This information can be important for future studies.
# [3] = Plasmodium falciparum, 3D7, 72 h, P. falciparum 3D7, 72 h, 0.0488–50 µM, ± standard error of the mean, read-out: IC50
# [4] = P. falciparum 3D7, 72 h, 0.0488–50 µM, ± standard error of the mean, read-out: IC50
Compound,IC50 (P. falciparum 3D7; [3]),IC50 (P. falciparum 3D7; [4]),also measured
Fc1ccc(N/N=C/c2cnn(-c3ccccc3)n2)cc1 [Compound 17],14.7 ± 1.28 µM,–,–
CCOC(=O)c1cn(-c2ccccc2)nn1 [Compound 6],12.8 ± 3.02 µM,–,–
"C[C@@H]1CC[C@H]2[C@@H](C)C(=O)O[C@@H]3O[C@@]4(C)CC[C@@H]1[C@]32OO4 [Artemisinin, reference compound]",–,–,"IC50 (P. falciparum 3D7; Plasmodium falciparum, 3D7, 72 h, 3D7, positive control […] to 160 nM, 72 h, unit inferred, read-out: IC50 (dose-response curve, Figure 3A)): 0.0062 ± 0.00073 µM; IC50 ([1]; Plasmodium falciparum, read-out: IC50 (dose-response curve, Figure 3B)): 0.0058 ± 0.00172 µM"
O=C(OCc1cnn(-c2ccccc2)n1)c1ccccc1 [Compound 8],> 25 µM,27.5 ± 1.26 µM,–
Fc1ccc(N/N=C/c2cn(-c3ccc(Cl)cc3)nn2)cc1 [Compound 19],< 10 µM,8.45 ± 2.25 µM,IC50 for the knockout strain compared with the 3D7 strain [1]: lower IC50 values for the knockout strain; IC50 ([1]; Plasmodium falciparum): 2.24 ± 0.77 µM; survival of HEK293 cells (MTT) (HEK293 cells): above 80%; toxicity in HEK 293 cells (MTT) (HEK293 cells): no toxicity
"Clc1ccc(Cl)c(N/N=C/c2cn(-c3cc(Cl)ccc3Cl)nn2)c1 [Compound 26, (E)-1-(2,5-dichlorophenyl)-4-((2-(2,5-dichlorophenyl)hydrazono)methyl)-1H-1,2,3-triazole]",< 10 µM,9.4 ± 2.87 µM,melting point: 200 to 201 °C
Clc1ccc(N/N=C/c2cn(-c3ccc(Cl)cc3)nn2)cc1 [Compound 18],17.6 ± 1.07 µM,–,–
"COc1ccc(-n2cc(/C=N/Nc3cc(C)ccc3C)nn2)cc1 [Compound 54, (E)-4-((2-(2,5-dimethylphenyl)hydrazono)methyl)-1-(4-methoxyphenyl)-1H-1,2,3-triazole]",–,–,solubilization [2]: weren’t able to be solubilized
"Clc1ccc(-n2cc(/C=N/Nc3cc(Cl)ccc3Cl)nn2)cc1 [Compound 20, (E)-1-(4-chlorophenyl)-4-((2-(2,5-dichlorophenyl)hydrazono)methyl)-1H-1,2,3-triazole]",13.6 ± 1.2 µM,–,melting point: 181 to 182 °C
CCCOCc1cn(-c2cc(Cl)ccc2Cl)nn1 [Compound 4],20.4 ± 0.73 µM,–,–
"COc1ccc(-n2cc(/C=N/Nc3ccc(Cl)cc3)nn2)cc1 [Compound 25, (E)-4-((2-(4-chlorophenyl)hydrazono)methyl)-1-(4-methoxyphenyl)-1H-1,2,3-triazole]",< 10 µM,9 ± 3.27 µM,–
Cc1ccc(C)c(N/N=C/c2cn(-c3cc(Cl)cc(Cl)c3)nn2)c1 [Compound 23],< 10 µM,9.23 ± 1.68 µM,–
COc1ccc(-n2cc(/C=N/Nc3ccccc3)nn2)cc1 [Compound 24],–,–,IC50 for the knockout strain compared with the 3D7 strain [1]: lower IC50 values for the knockout strain; IC50 ([1]; Plasmodium falciparum): 0.99 ± 0.25 µM; survival of HEK293 cells (MTT) (HEK293 cells): above 80%; toxicity in HEK 293 cells (MTT) (HEK293 cells): no toxicity
COc1ccc(-n2cc(COC(=O)c3ccccc3)nn2)cc1 [Compound 12],13.5 ± 1.12 µM,–,–
O=C(N/N=C/c1cn(-c2ccccc2)nn1)c1ccncc1 [Compound 27],23.1 ± 2.58 µM,–,–
CCOCc1cn(-c2ccc(Cl)cc2)nn1 [Compound 1],11.7 ± 0.74 µM,–,–
ON=Cc1cn(-c2ccc(Cl)cc2)nn1 [Compound 13],< 10 µM,6.67 ± 1.86 µM,IC50 for the knockout strain compared with the 3D7 strain [1]: lower IC50 values for the knockout strain; IC50 ([1]; Plasmodium falciparum): 0.89 ± 0.39 µM; survival of HEK293 cells (MTT) (HEK293 cells): above 80%; toxicity in HEK 293 cells (MTT) (HEK293 cells): no toxicity

Compound,IC50 (P. falciparum 3D7; [3]),IC50 (P. falciparum 3D7; [4]),also measured
O=C(N/N=C/c1cn(-c2ccc(Cl)cc2)nn1)c1ccncc1 [Compound 28],14.5 ± 1.13 µM,–,–
CCCCCCCCCC(=O)OCc1cn(-c2ccc(OC)cc2)nn1 [Compound 11],23.5 ± 2.77 µM,–,–
CCCCCCCCCC(=O)OCc1cn(-c2ccc(Cl)cc2)nn1 [Compound 9],–,–,IC50 for the knockout strain compared with the 3D7 strain [1]: lower IC50 values for the knockout strain; IC50 ([1]; Plasmodium falciparum): 1.55 ± 0.55 µM; survival of HEK293 cells (MTT) (HEK293 cells): above 80%; toxicity in HEK 293 cells (MTT) (HEK293 cells): no toxicity
C(=N\Nc1ccccc1)/c1cnn(-c2ccccc2)n1 [Compound 15],18.1 ± 1.92 µM,–,–
O=C(N/N=C/c1cnn(-c2ccccc2)n1)c1ccncc1 [Compound 31],20.2 ± 0.79 µM,–,–
O=C(OCc1cn(-c2ccccc2)nn1)c1ccccc1 [Compound 7],22.9 ± 0.34 µM,–,–
"(E)-1-(3,5-dichlorophenyl)-4-((2-(2,5-dimethylphenyl)hydrazono)methyl)-1H-1,2,3-triazole [Compound 22]",–,5.56 ± 0.47 µM,"IC50 ([1]; PfSR25- knockout strain, ± standard error of the mean, read-out: IC50): 4.41 ± 0.6 µM; IC50 for the knockout strain compared with the 3D7 strain [1]: lower IC50 values for the knockout strain; survival of HEK293 cells (MTT) (HEK293 cells): above 80%; toxicity in HEK 293 cells (MTT) (HEK293 cells): no toxicity"
CCCCOCc1cn(-c2cc(Cl)cc(Cl)c2)nn1 [Compound 5],23.9 ± 2.01 µM,–,–
CCCOCc1cn(-c2cc(Cl)cc(Cl)c2)nn1 [Compound 3],14.5 ± 1.71 µM,–,–
COc1ccc(-n2cc(/C=N/NC(=O)c3ccncc3)nn2)cc1 [Compound 30],23.2 ± 1.94 µM,–,–
CCOCc1cn(-c2cc(Cl)cc(Cl)c2)nn1 [Compound 2],15.4 ± 2.26 µM,–,–
"Clc1cc(Cl)cc(-n2cc(/C=N/Nc3ccc(Br)cc3)nn2)c1 [Compound 21, (E)-4-((2-(4-bromophenyl)hydrazono)methyl)-1-(3,5-dichlorophenyl)-1H-1,2,3-triazole]",> 25 µM,29.3 ± 0.34 µM,IC50 for the knockout strain compared with the 3D7 strain [1]: lower IC50 values for the knockout strain; IC50 ([1]; Plasmodium falciparum): 12.4 ± 2.51 µM
"O=C(N/N=C/c1cn(-c2cc(Cl)cc(Cl)c2)nn1)c1ccncc1 [Compound 29, (E)-N′-((1-(3,5-dichlorophenyl)-1H-1,2,3-triazol-4-yl)methylene)isonicotinohydrazide]",< 10 µM,6.96 ± 1.44 µM,IC50 ([1]; Plasmodium falciparum): 9.91 ± 2.94 µM; survival of HEK293 cells (MTT) (HEK293 cells): above 80%; toxicity in HEK 293 cells (MTT) (HEK293 cells): no toxicity
Clc1ccc(N/N=C/c2cnn(-c3ccccc3)n2)cc1 [Compound 16],< 10 µM,9.29 ± 1.01 µM,–
O/N=C/c1cn(-c2cc(Cl)ccc2Cl)nn1 [Compound 14],21.5 ± 0.84 µM,–,–
CCCCCCCCCC(=O)OCc1cn(-c2cc(Cl)cc(Cl)c2)nn1 [Compound 10],14.6 ± 0.29 µM,–,–
